Data: patent US8012943B2, “Antibacterial agents” (Optimer Pharmaceuticals, Inc., priority 2003, dated 2011)
Values after ≈ are worked out from the molar mass of the structure shown. Read-outs that look alike come from different tables or passages of the source.

How the values were obtained:
Assay in all cases: MIC, NCCLS broth microdilution
S. aureus MRSA 33591 = format: cell-based; conditions: Staphylococcus aureus, Table 1
Description: (§1) Antibacterial activity of the novel Formula 1 and Formula 2 compounds and their pharmaceutically acceptable addition salts with organic and inorganic acids was determined against a series of microorganisms from the American Type Culture Collection (ATCC) and clinical Streptococcus sp isolates. The ATCC strains included: Staphylococcus aureus, Enterococcus faecium, Klebsiella pneumoniae, Escherichia coli, Salmonella typhimurium, Streptococcus pneumoniae, Streptococcus pyogenes, and Haemophilus influenzae. The clinical strains included macrolide resistant Streptococcus sp. with either Erm or MefA resistance mechanisms. The clinical isolates were identified using the API biochemical identification system (BioMerieux).
(§2) Antimicrobial susceptibility testing was performed according to recommendations by the National Committee for Clinical Laboratory Standards (NCCLS M100-S12, M7-A5). Briefly, two fold dilutions of compounds were made in microtiter plates. Each well of the microtiter plate was inoculated with test microorganisms at a final density 5×10^5 colony forming units (cfu)/mL. The microtiter plates were incubated at 35° C. under aerobic conditions, except for H. influenzae and S. pyogenes which were incubated at 5% CO2. The minimal inhibitory concentration (MIC) was defined as the lowest concentration of compound that inhibited growth. The results of represented examples of this invention on standard test microorganisms and clinical isolates in comparison with azithromycin and telithromycin are shown in Table 1 and Table 2.

E. faecium ATCC 19434 = format: cell-based; conditions: Enterococcus faecium, ATCC19434, Table 1
Description: as §1, §2

E. Coli ATCC 25922 = format: cell-based; conditions: Escherichia coli, ATCC25922, Table 1
Description: as §1, §2

K. Pneumonia 13883 = format: cell-based; conditions: Klebsiella pneumoniae, Table 1
Description: as §1, §2

S. pyogenes ATCC 19615 = format: cell-based; conditions: Streptococcus pyogenes, ATCC19615, 5% CO2, Table 1
Description: as §1, §2

[1] = system: S. aureus ATCC 29213 (MSSA) MLS-S; format: cell-based; conditions: Staphylococcus aureus, Table 1
Description: as §1, §2

[2] = system: S. Typhimurium ATCC 14028; format: cell-based; conditions: Salmonella enterica, Table 1
Description: as §1
as §2, with “growth.” for “growth. The results of represented examples of this invention on standard test microorganisms and clinical isolates in comparison with azithromycin and telithromycin are shown in Table 1 and Table 2.”

H. influenzae ATCC 49247 = format: cell-based, Haemophilus influenzae; conditions: 5% CO2
Description: as §1, §2

S. pneumoniae 303(ErmB) = format: cell-based, Streptococcus pneumoniae; conditions: Streptococcus pneumoniae, read-out: MIC
Description: as §1, §2

S. pneumoniae ATCC 49619 = format: cell-based, Streptococcus pneumoniae; conditions: Streptococcus pneumoniae
Description: as §1, §2

S. pneumoniae 163(MefA) = format: cell-based, Streptococcus pneumoniae; conditions: Streptococcus pneumoniae, read-out: MIC
Description: as §1, §2

S. pyogenes 1850 = format: cell-based; conditions: Streptococcus pyogenes, Table 2
Description: as §1, §2

S. pyogenes 3029 = format: cell-based; conditions: Streptococcus pyogenes, Table 2
Description: as §1, §2

S. pneumoniae 5032 = format: cell-based; conditions: Streptococcus pneumoniae, Table 2
Description: as §1, §2

S. pyogenes 3262 = format: cell-based; conditions: Streptococcus pyogenes, Table 2
Description: as §1, §2

S. pyogenes 1721 = format: cell-based; conditions: Streptococcus pyogenes, Table 2
Description: as §1, §2

[3] = system: S. pneumoniae 3773 (Erm B); format: cell-based, Streptococcus pneumoniae
Description: as §1, §2

[4] = Haemophilus influenzae, ATCC49247, H. influenzae ATCC 49247, Table 1, read-out: MIC
[5] = S. pneumoniae 303(ErmB), Table 1
[6] = ATCC49619, Table 1, read-out: MIC
[7] = S. pneumoniae 163(MefA), Table 1

MIC (S. aureus MRSA 33591) [µg/mL]	MIC (E. faecium ATCC 19434) [µg/mL]	MIC (E. Coli ATCC 25922) [µg/mL]	MIC (K. Pneumonia 13883) [µg/mL]	MIC (S. pyogenes ATCC 19615) [µg/mL]	MIC [1] [µg/mL]	MIC [2] [µg/mL]	MIC (H. influenzae ATCC 49247; [4]) [µg/mL]	MIC (S. pneumoniae 303(ErmB); [5]) [µg/mL]	MIC (S. pneumoniae ATCC 49619; [6]) [µg/mL]	MIC (S. pneumoniae 163(MefA); [7]) [µg/mL]	SMILES	also measured
> 64	4 (≈ 5.34 µM)	8 (≈ 10.7 µM)	8 (≈ 10.7 µM)	1 (≈ 1.34 µM)	1 (≈ 1.34 µM)	4 (≈ 5.34 µM)	2 (≈ 2.67 µM)	0.5 (≈ 0.668 µM)	≤ 0.125	≤ 0.125	CC[C@H]1OC(=O)[C@H](C)[C@@H](O[C@H]2C[C@@](C)(OC)[C@@H](O)[C@H](C)O2)[C@H](C)[C@@H](O[C@@H]2O[C@H](C)C[C@H](N(C)C)[C@H]2O)[C@](C)(O)C[C@@H](C)CN(C)[C@H](C)[C@@H](O)[C@]1(C)O [Azithromycin, reference compound]	
> 64	≤ 0.125	64 (≈ 73.8 µM)	32 (≈ 36.9 µM)	≤ 0.125	≤ 0.125	8 (≈ 9.23 µM)	0.5 (≈ 0.577 µM)	> 64	≤ 0.125	≤ 0.125	CC[C@H]1OC(=O)[C@H](C)C(=O)[C@H](C)[C@@H](OC2OC(C)CC(N(C)C)C2O)[C@@](C)(OC)C[C@@H](C)C(=O)[C@H](C)[C@H]2N(CCCCn3cc(Cn4nnc5ccccc54)nn3)C(=O)O[C@]12C (stereo partly drawn) [OP-1007, 11-N-[4-(4-Benzotriazol-1-ylmethyl-[1,2,3]triazol-1-yl)-butyl]-6-O-methyl-5-O-dasosaminyl-3-oxo-erythronolide A, 11,12-carbamate]	
											CC[C@H]1OC(=O)[C@@](C)(F)C(=O)[C@H](C)[C@@H](O[C@@H]2O[C@H](C)C[C@H](N(C)C)[C@H]2O)[C@](C)(OC)C[C@@H](C)C(=O)[C@H](C)[C@H]2N(CCCCn3cc(-c4cccc(N)c4)nn3)C(=O)O[C@]12C [OP-1068, 11-N-[4-[4-(3-aminophenyl)-[1,2,3]triazol-1-yl]-butyl]-5-desosaminyl-3-oxo-2-fluoro-erythronolide A, 11,12-cyclic carbamate]	MIC (S. pyogenes 1850): ≤ 0.125 µg/mL; MIC (S. pyogenes 3029): ≤ 0.125 µg/mL; MIC (S. pneumoniae 5032): 0.5 µg/mL (≈ 0.592 µM); MIC (S. pyogenes 3262): 0.5 µg/mL (≈ 0.592 µM); MIC (S. pyogenes 1721): 0.5 µg/mL (≈ 0.592 µM); MIC (H. influenzae ATCC 49247; H. influenzae ATCC 49247, Table 2): 4 µg/mL (≈ 4.73 µM); MIC (H. influenzae ATCC 49247; Haemophilus influenzae, ATCC49247, H. influenzae ATCC 49247, Table 2, read-out: MIC): 2 µg/mL (≈ 2.37 µM); MIC (S. pneumoniae 303(ErmB); S. pneumoniae ErmB 303, Table 2): ≤ 0.125 µg/mL; MIC ([3]; Streptococcus pneumoniae, Table 2, read-out: MIC): 0.5 µg/mL (≈ 0.592 µM); MIC ([3]; Table 2): 1 µg/mL (≈ 1.18 µM); MIC (S. pneumoniae ATCC 49619; ATCC49619, Table 2, read-out: MIC): ≤ 0.125 µg/mL; MIC (S. pneumoniae 163(MefA); S. pneumoniae 163 (Mef A), Table 2): ≤ 0.125 µg/mL
> 64	≤ 0.125	> 64	> 64	≤ 0.125	0.25 (≈ 0.283 µM)	> 64	2 (≈ 2.26 µM)	> 64	≤ 0.125	0.5 (≈ 0.566 µM)	CC[C@H]1OC(=O)[C@H](C)C(=O)[C@H](C)[C@@H](OC2OC(C)C(O)C(N(C)C)C2O)[C@@](C)(OC)C[C@@H](C)C(=O)[C@H](C)[C@H]2N(CCCCn3cc(Cn4nnc5ccccc54)nn3)C(=O)O[C@]12C (stereo partly drawn) [OP-1071, 11-N-[4-(4-Benzotriazol-1-ylmethyl-[1,2,3]triazol-1-yl)-butyl]-6-O-methyl-5-mycaminosyl-3-oxo-erythronolide A, 11,12-carbamate]	
